Experiment [1] concerns the target T1, rat CYP17 (rat testicular microsomes) (Rattus norvegicus, UniProt P11715).
T1 construct: Rat testis tissue was collected and disrupted with 30 strokes of a glass homogenizer; from tissue; host or cells: rat testis (microsomes)
T1 sequence (P11715 1-507): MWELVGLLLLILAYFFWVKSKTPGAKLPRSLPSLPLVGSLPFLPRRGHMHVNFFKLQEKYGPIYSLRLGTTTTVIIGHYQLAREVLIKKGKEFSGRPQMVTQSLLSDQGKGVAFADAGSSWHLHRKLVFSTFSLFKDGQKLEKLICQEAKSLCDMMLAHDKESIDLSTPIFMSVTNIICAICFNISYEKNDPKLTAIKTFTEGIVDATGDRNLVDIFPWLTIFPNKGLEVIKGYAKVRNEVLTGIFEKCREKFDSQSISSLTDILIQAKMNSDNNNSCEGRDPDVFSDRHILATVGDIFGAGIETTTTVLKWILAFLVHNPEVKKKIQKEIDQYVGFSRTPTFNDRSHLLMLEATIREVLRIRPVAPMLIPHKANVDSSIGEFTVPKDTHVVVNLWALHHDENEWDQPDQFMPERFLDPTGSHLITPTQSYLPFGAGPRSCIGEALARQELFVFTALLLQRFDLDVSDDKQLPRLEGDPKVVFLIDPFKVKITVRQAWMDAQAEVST
Description: CYP17 inhibition assay in rat testicular microsomes. Type of experiment: biochemical. The method, boiled down:
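Rat testicular microsomes (150–160 μg) or yeast microsomes expressing human CYP17 (1.7 pmol) react with ³H-17α-hydroxypregnenolone (1 μCi/reaction) and 325 μM NADPH in potassium phosphate buffer, pH 7.4. Compound is pre-incubated with substrate for 15 min, then the reaction runs 60 min at 37 °C. After chloroform extraction and charcoal treatment, aqueous radioactivity is measured by scintillation counting.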

The target in experiment [2] is T2, human CYP17 in H295R adrenocortical carcinoma cells (Homo sapiens, UniProt P05093).
T2 construct: H295R Adrenocortical carcinoma cells [NCI-H295A, ATCC Number CRL-2128, American Type Culture Collection; host or cells: H295R adrenocortical carcinoma cells
T2 sequence (P05093 1-508): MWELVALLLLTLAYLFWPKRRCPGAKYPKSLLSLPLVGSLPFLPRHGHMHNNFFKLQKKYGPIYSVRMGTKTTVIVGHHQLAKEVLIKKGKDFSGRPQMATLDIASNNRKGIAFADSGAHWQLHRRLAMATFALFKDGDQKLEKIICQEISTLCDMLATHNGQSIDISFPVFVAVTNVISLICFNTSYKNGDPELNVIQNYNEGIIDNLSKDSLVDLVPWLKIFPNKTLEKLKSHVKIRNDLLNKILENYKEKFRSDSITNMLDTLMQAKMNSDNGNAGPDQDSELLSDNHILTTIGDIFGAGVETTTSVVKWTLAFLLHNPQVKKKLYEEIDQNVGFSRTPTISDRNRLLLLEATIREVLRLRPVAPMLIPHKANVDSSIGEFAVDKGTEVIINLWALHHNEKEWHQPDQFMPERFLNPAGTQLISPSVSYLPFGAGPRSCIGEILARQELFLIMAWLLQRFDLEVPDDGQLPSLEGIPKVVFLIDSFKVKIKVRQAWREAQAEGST
Description: Cell-based human CYP17 inhibition assay, H295R cells. The conditions noted are these: 16 hours, read-out: CYP17 (human H295R adrenal cells). The method, boiled down: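 H295R cells or LNCaP cells stably transfected with full-length human CYP17A1 (30,000/well) incubated 16 h at 37 °C with ³H-17α-hydroxypregnenolone and compound (top 10 μM, 3-fold dilutions, up to 10 concentrations). Medium chloroform-extracted and charcoal-treated; aqueous-phase radioactivity counted by scintillation.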

On to `Cn1cc(-c2ccc(C(C)(O)c3ccncc3)o2)ccc1=O` (stereo not drawn) [Example 58, 5-(5-(1-hydroxy-1-(pyridin-4-yl)ethyl)furan-2-yl)-1-methylpyridin-2(1H)-one], for which the IC50 in experiment [1] lay within 50 to 200 nM; in experiment [2] it was 201 to 10000 nM.
Take `OC1(c2cnc(-c3ccc(F)cc3)s2)CCc2cnccc21` (stereo not drawn) [Example 59, 5-(2-(4-fluorophenyl)thiazol-5-yl)-6,7-dihydro-5H-cyclopenta[c]pyridin-5-ol]: the IC50 was 50 to 200 nM in experiment [1] and 201 to 10000 nM in experiment [2].
For `Cn1cc(-c2ncc(C(C)(O)c3ccncc3)o2)ccc1=O` (stereo not drawn) [Example 60, 5-(5-(1-hydroxy-1-(pyridin-4-yl)-ethyl)oxazol-2-yl)-1-methylpyridin-2(1H)-one], in that order: 201 to 10000 nM and 201 to 10000 nM.
The matching figures for `CC(O)(c1ccncc1)c1nnc(-c2ccc(F)cc2)s1` (stereo not drawn) [Example 61, 1-(5-(4-fluorophenyl)-1,3,4-thiadiazol-2-yl)-1-(pyridin-4-yl)ethanol]: under 50 nM and 50 to 200 nM.
For `CCCCC(=O)c1ccc(-c2ccc(C(C)(O)c3ccncc3)nc2)cn1` (stereo not drawn) [Example 62, 1-(6′-(1-hydroxy-1-(pyridin-4-yl)ethyl)-[3,3′-bipyridin]-6-yl)pentan-1-one], in that order: 50 to 200 nM and 201 to 10000 nM.
Take `CC(O)(c1ccncc1)c1cc(-c2ccc(F)cc2)sn1` (stereo not drawn) [Example 63, 1-(5-(4-fluorophenyl)isothiazol-3-yl)-1-(pyridin-4-yl)ethanol]: the IC50 in experiment [1] and in experiment [2] was under 50 nM in each case.
For the compound `CC(O)(c1ccncc1)c1cnc(-c2cncnc2)s1` (stereo not drawn) [Example 64, 1-(pyridin-4-yl)-1-(2-(pyrimidin-5-yl)thiazol-5-yl)ethanol], the figures for the IC50 in experiment [1] and in experiment [2] were under 50 nM and 201 to 10000 nM, respectively.
The matching figures for `CC(N)(c1ccncc1)c1cnc(-c2ccc(F)cc2)s1` (stereo not drawn) [Example 68, 1-(2-(4-Fluorophenyl)thiazol-5-yl)-1-(pyridin-4-yl)ethanamine]: under 50 nM and 50 to 200 nM.
In the case of `CC(=O)NC(C)(c1ccncc1)c1cnc(-c2ccc(F)cc2)s1` (stereo not drawn) [Example 69, N-(1-(2-(4-Fluorophenyl)thiazol-5-yl)-1-(pyridin-4-yl)ethyl)acetamide], the IC50 in experiment [1] is 50 to 200 nM; in experiment [2] it was 201 to 10000 nM.
